# Source: PMC3335078, “Length and Amino Acid Sequence of Peptides Substituted for the 5-HT3A Receptor M3M4 Loop May Affect Channel Expression and Desensitization” (PLoS ONE, 2012)
# Assays:
# [1] = target: T1, 5-HT3A ESQPA-M3M4 loop construct (Mus musculus, UniProt P23979); experiment: Two-electrode voltage clamp, oocytes expressing ESQPA-M3M4 loop construct; type: cell-based; conditions: up to 50 µM 5-HT, Xenopus oocytes
# T1 construct: expressed in transfected cells; host or cells: Xenopus laevis oocytes injected with mRNA
# From the text: (§1) The mouse 5-HT3A cDNA with an N-terminal V5 epitope tag was cloned into the pXOON vector as previously described, and is referred to in this paper as “wild-type” (WT). The starting construct for all of the M3M4 loop replacement constructs used in this work was the 5-HT3A-ΔM3M4 construct formed by splicing the cytoplasmic end of M3 (M3-LVHK/QDLQRP…) to the cytoplasmic end of M4 (…WLRVGY/VLDRLL-M4). The splice was made at the site of the “/” to yield the sequence M3-LVHK/VLDRLL-M4 [34]. This removed 115 residues predicted to form the M3M4 loop.
# (§2) The construction of the 5-HT3A-glvM3M4 chimera with the 5-HT3A M3M4 loop replaced by the GLIC heptapeptide M3M4 loop (SQPARAA) was described previously. Point mutations, alanine and Gly-Ser-Ala insertions into the 5-HT3A-ΔM3M4 construct were generated with the Quikchange site directed mutagenesis procedure (Stratagene, La Jolla, CA). […]
# (§3) Currents were recorded under two-electrode voltage clamp from oocytes 2–5 d post-injection as described previously. […]
# (§4) Desensitization rates were determined by fitting a single exponential decay function to the current data with Prism 4 software (GraphPad Software). Significant differences compared with wild-type were determined by a one-way ANOVA (p<0.05) using Dunnett's multiple comparison post-hoc test (p<0.05). […]
# [2] = target: T2, 5-HT3A M3M4 loop GSAGSA mutant (Mus musculus, UniProt P23979); experiment: Two-electrode voltage clamp, oocytes expressing GSAGSA M3M4 mutant; type: cell-based; conditions: 10 µM 5-HT, Xenopus oocytes
# T2 construct: expressed in transfected cells; host or cells: Xenopus laevis oocytes injected with mRNA
# From the text: as §1, §2, §3, §4
# [3] = target: T3, 5-HT3A M3M4 loop GSAGSAGSA mutant (Mus musculus, UniProt P23979); experiment: Two-electrode voltage clamp, oocytes expressing […] M3M4 mutant; type: cell-based; conditions: Xenopus oocytes
# T3 construct: expressed in transfected cells; host or cells: Xenopus laevis oocytes injected with mRNA
# From the text: as §1, §2, §3, §4
# [4] = target: T4, 5-HT3A construct with single proline in place of the single alanine (Mus musculus, UniProt P23979, DELINS338-452P); experiment: Two-electrode voltage clamp, oocytes expressing single proline loop construct; type: cell-based; conditions: Xenopus oocytes, data not shown
# T4 construct: expressed in transfected cells; host or cells: Xenopus laevis oocytes injected with mRNA
# From the text: as §1, §2, §3, §4
# [5] = target: T5, 5-HT3A-A7 (M3M4 loop replaced by seven alanines) (Mus musculus, UniProt P23979)
# T5 sequence (P23979 with tags, fused parts or gaps isoform P23979-2 limits assumed): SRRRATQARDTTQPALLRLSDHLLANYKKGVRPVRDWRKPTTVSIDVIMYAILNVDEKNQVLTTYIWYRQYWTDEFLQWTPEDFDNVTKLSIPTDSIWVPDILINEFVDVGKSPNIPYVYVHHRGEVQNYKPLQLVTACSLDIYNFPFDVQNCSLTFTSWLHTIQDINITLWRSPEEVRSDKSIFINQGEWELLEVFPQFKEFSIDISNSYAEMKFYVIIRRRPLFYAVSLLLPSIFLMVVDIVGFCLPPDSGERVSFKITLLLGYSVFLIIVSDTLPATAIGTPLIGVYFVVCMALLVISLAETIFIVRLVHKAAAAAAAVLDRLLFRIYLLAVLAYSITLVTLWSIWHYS
# From the text: as §1
# (§5) The construction of the 5-HT3A-glvM3M4 chimera with the 5-HT3A M3M4 loop replaced by the GLIC heptapeptide M3M4 loop (SQPARAA) was described previously. Point mutations, alanine and Gly-Ser-Ala insertions into the 5-HT3A-ΔM3M4 construct were generated with the Quikchange site directed mutagenesis procedure (Stratagene, La Jolla, CA). The entire coding region of all mutant constructs was verified by DNA sequencing (Albert Einstein College of Medicine DNA Sequencing Facility). The pXOON plasmid was linearized using NheI and capped mRNA prepared with T7 RNA polymerase (mMessage mMachine, Ambion, Austin, TX).
# (§6) Use of Xenopus laevis in this study was carried out in strict accordance with the recommendations in the Guide for the Care and Use of Laboratory Animals of the National Institutes of Health. The protocol was approved by the Albert Einstein College of Medicine Animal Care and Use Committee (Protocol Number: 20081201). All surgery was performed under tricaine anesthesia, and all efforts were made to minimize suffering. Oocyctes were harvested from Xenopus (Nasco Science, Fort Atkinson, WI) anesthetized with 0.15% tricaine. Oocyctes were defolliculated by incubation in 2 mg ml^−1 Type 1A collagenase (Sigma-Aldrich, St. Louis, MO) in OR2 (85 mM NaCl, 2 mM KCl, 1 mM MgCl2, and 5 mM HEPES; pH adjusted to 7.5 with NaOH) for a 60 or 75 min. Oocytes were washed in OR2 and stored at 16°C in SOS medium: 100 mM NaCl, 2 mM KCl, 1 mM MgCl2, 1.8 mM CaCl2 5 mM HEPES, pH 7.5 with 100 IU ml^−1 penicillin, 100 µg ml^−1 streptomycin, and 250 ng ml^−1 amphotericin B (Invitrogen, Carlsbad, CA) and 5% horse serum (Sigma-Aldrich). 24 hrs following isolation, oocyctes were injected with 23 nl (2.3 ng) of mRNA and were kept in SOS media for 2–5 d at 16°C.
# (§7) Currents were recorded under two-electrode voltage clamp from oocytes 2–5 d post-injection as described previously. […] The perfusion chamber volume was 200 µl. A 3 M KCl/agar bridge connected the ground electrode to the bath. The holding potential was maintained at −60 mV. […] Salts were purchased from Fisher Scientific (Hampton, NH) or Sigma-Aldrich.
# (§8) Desensitization rates were determined by fitting a single exponential decay function to the current data with Prism 4 software (GraphPad Software). Significant differences compared with wild-type were determined by a one-way ANOVA (p<0.05) using Dunnett's multiple comparison post-hoc test (p<0.05). […]
# [6] = target: T6, 5-HT3A-A6 (M3M4 loop replaced by six alanines) (Mus musculus, UniProt P23979)
# T6 sequence (P23979 with tags, fused parts or gaps isoform P23979-2 limits assumed): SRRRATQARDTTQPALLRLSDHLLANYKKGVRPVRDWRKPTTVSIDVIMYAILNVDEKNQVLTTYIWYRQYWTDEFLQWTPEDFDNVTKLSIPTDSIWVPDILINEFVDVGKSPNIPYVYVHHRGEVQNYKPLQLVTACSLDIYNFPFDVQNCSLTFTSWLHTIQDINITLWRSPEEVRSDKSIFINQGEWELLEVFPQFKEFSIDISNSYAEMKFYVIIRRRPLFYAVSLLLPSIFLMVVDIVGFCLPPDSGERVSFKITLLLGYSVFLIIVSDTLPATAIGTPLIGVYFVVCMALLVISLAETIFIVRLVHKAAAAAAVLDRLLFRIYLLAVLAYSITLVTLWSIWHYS
# From the text: as §1, §5, §6, §7, §8
# [7] = target: T7, 5-HT3A M3M4 loop AAPARAA construct (Mus musculus, UniProt P23979); experiment: Two-electrode voltage clamp, oocytes expressing AAPARAA loop construct; type: cell-based; conditions: 10 µM 5-HT, Xenopus oocytes
# T7 construct: expressed in transfected cells; host or cells: Xenopus laevis oocytes injected with mRNA
# From the text: as §1, §2, §3, §4
# 5-HT3A-A1 = target: T8, 5-HT3A-A1 (Mus musculus, UniProt P23979, DELINS338-452A); experiment: Radioactive 5-HT binding to oocytes expressing 5-HT3A-A1; conditions: 150 nM [3H]5-HT + 10 µM 5-HT, 5 min, 45 s cold wash
# T8 construct: expressed in transfected cells; host or cells: Xenopus laevis oocytes injected with mRNA
# Protocol: Assays were terminated by five washes with ice cold CFFR buffer, followed by solubilization of the oocytes individually with 200 µl 5% SDS. Total wash time was 45 s. […] All data points represent the average of at least fifteen individual oocytes derived from three separate oocyte isolations.
# To determine the extent of non-specific binding, all binding experiments were performed in parallel with diethylpyrocarbonate-(DEPC)-treated-water injected oocytes or uninjected oocytes.
# T1 sequence (P23979 with tags, fused parts or gaps isoform P23979-2 limits assumed): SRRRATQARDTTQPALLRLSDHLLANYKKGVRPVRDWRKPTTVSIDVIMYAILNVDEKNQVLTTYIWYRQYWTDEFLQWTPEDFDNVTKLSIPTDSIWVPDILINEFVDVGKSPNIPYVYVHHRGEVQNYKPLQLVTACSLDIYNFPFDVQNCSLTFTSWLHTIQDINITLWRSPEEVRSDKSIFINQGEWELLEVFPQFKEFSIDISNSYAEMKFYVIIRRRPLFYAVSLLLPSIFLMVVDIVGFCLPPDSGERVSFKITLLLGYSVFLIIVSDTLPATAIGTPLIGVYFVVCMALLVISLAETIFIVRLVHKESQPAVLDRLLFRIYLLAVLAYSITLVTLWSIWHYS
# T7 sequence (P23979 with tags, fused parts or gaps): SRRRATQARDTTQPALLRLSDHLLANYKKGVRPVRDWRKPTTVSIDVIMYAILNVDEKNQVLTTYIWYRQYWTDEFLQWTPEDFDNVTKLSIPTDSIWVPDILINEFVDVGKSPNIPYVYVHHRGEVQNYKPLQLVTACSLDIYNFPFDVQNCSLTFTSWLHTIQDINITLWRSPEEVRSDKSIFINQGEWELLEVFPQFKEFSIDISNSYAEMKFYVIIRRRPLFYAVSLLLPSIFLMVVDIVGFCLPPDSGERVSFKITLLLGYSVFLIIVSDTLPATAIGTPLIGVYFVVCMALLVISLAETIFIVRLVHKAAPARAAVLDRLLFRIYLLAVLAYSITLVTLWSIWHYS
# T4 sequence (P23979 with tags, fused parts or gaps isoform P23979-2 DELINS338-452P limits assumed): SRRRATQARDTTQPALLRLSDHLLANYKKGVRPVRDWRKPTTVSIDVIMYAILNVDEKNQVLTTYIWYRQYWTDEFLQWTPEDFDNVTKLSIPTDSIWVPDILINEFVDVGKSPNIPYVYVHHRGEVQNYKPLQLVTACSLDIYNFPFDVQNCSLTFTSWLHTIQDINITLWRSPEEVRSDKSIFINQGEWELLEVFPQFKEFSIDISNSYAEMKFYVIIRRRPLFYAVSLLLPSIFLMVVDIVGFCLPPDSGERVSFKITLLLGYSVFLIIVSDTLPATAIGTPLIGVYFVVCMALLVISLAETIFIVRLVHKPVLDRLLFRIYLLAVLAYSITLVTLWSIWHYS
# T3 sequence (P23979 with tags, fused parts or gaps isoform P23979-2 limits assumed, change not shown): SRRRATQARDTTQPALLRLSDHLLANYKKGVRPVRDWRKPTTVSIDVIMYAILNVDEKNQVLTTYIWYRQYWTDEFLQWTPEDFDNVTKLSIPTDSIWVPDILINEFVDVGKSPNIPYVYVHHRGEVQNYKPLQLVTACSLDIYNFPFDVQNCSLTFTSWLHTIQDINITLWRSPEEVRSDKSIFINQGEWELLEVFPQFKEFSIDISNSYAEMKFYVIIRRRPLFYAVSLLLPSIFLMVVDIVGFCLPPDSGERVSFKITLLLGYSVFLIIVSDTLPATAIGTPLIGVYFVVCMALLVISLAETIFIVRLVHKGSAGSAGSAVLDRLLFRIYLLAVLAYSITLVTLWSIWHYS
# T2 sequence (P23979 with tags, fused parts or gaps isoform P23979-2 limits assumed, change not shown): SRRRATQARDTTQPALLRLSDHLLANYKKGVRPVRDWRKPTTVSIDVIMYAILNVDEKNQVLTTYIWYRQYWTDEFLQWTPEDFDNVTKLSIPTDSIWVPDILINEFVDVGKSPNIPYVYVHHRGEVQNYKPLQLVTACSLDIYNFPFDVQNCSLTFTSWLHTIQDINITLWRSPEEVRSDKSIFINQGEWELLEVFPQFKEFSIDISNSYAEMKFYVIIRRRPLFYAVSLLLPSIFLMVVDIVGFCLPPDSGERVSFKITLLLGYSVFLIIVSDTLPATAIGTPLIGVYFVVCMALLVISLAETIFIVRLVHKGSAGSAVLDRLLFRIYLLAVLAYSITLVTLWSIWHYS
# T8 sequence (P23979 with tags, fused parts or gaps isoform P23979-2 DELINS338-452A limits assumed): as the sequence (P23979 with tags, fused parts or gaps isoform P23979-2 DELINS338-452P limits assumed) above, with P315A counted along it
compound,measurement,setting,value
"NCCc1c[nH]c2ccc(O)cc12 [5-HT, 5-hydroxytryptamine]",5-HT induced current,[1],no currents were observed
same,5-HT induced current,[2],730±45 nA
same,5-HT induced current,[3],no detectable currents
same,5-HT induced current,[4],neither construct generated any 5-HT induced currents
same,nH (Hill coefficient),[5],3.7±0.8
same,10–90% Activation rise time,[5]; 10 µM 5-HT,881 ± 110 ms
same,Desensitization time constant τ,[5]; prolonged 10 µM 5-HT,62 ± 4 s
same,10–90% Activation rise time,[6]; 10 µM 5-HT,1017 ± 23 ms
same,Imax (peak current),"[6]; 10 µM 5-HT, Xenopus oocytes, -60 mV",6400±1100 nA
same,Desensitization time constant τ,[6]; prolonged 10 µM 5-HT,77 ± 6 s
same,Channel function (5-HT induced current),[7],non-functional channels
same,Radiolabeled 5-HT binding to oocytes,5-HT3A-A1,undetectable
